The test system of experiment [1] is Candida albicans. As to the kind of experiment: Inhibition zone test of oil compositions on Candida albicans (Example 1). The format is cell-based. More on the design: unit not given here. The procedure:
Different two-oil and three-oil compositions with varying ratios were prepared in order to check the performance of the oils for inhibition of Candida albicans. Fluconazole and saline were used as positive and negative controls, respectively.

Experiment [2] deals with Candida albicans. Briefly: Antifungal activity (zone of inhibition) of microcapsules and bacterial cellulose loaded microcapsules. The format is cell-based. An excerpt:
The anti-fungal activity of the microcapsules and cellulosic matrices were checked for inhibition of Candida albicans. The studies are depicted in FIG. 15, FIG. 16, FIG. 17 and FIG. 18.

Regarding `Cc1ccc(C(C)C)cc1O` [Carvacrol, 5-Isopropyl-2-methylphenol], the Inhibition zone diameter is 3.2 in the experiment with Candida albicans [1] (volume 50 μL, 24 hrs); 3.8 in the experiment on Candida albicans [1] (volume 100 μL, 24 hrs); 4.5 in the experiment with Candida albicans [1] (volume 150 μL, 24 hrs); 5.1 in the experiment with Candida albicans [1] (volume 200 μL, 24 hrs).

Take `C=CCc1ccc(O)c(OC)c1` [Eugenol, 2-Methoxy-4-(prop-2-en-1-yl) phenol]: the Inhibition zone diameter with Candida albicans [1] (volume 50 μL, 24 hrs) is 2.0; in the experiment with Candida albicans [1] (volume 100 μL, 24 hrs), 3.5; in the experiment with Candida albicans [1] (volume 150 μL, 24 hrs), 4.1; in the experiment on Candida albicans [1] (volume 200 μL, 24 hrs) it was 4.3.

Regarding `OC(Cn1cncn1)(Cn1cncn1)c1ccc(F)cc1F` [Fluconazole], the Inhibition zone diameter with Candida albicans [1] (200 μg, time period 24 hrs) was 5.3; with Candida albicans [1] (200 μg, time period 48 hrs), 4.5; with Candida albicans [1] (200 μg, time period 72 hrs), 3.4. Further, the values for the Zone of inhibition in the experiment on Candida albicans [2] (24 hrs), with Candida albicans [2] (48 hrs) and in the experiment with Candida albicans [2] (72 hrs) were 3.5 ± 0.1, 1.8 ± 0.1 and 1.5 ± 0.1, respectively.

As for `Cc1ccc(C(C)C)c(O)c1` [Thymol, 2-isopropyl-5-methylphenol], the Inhibition zone diameter in the experiment with Candida albicans [1] (volume 50 μL, 24 hrs) came out at 2.5; with Candida albicans [1] (volume 100 μL, 24 hrs), 3.1; with Candida albicans [1] (volume 150 μL, 24 hrs) it was 3.9; in the experiment with Candida albicans [1] (volume 200 μL, 24 hrs) it was 4.2.

These data come from patent US20220040115A1, “PHARMACEUTICAL COMPOSITIONS AND DELIVERY SYSTEMS FOR PREVENTION AND TREATMENT OF CANDIDIASIS” (INDIAN INSTITUTE OF TECHNOLOGY HYDERABAD, priority 2018, published 2022).
